Reference: PubChem BioAssay (NCI)
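Step 1: Grow cells in 96-well plates. Step 2: Expose to compound for 48 hours at 5 concentrations. Step 3: Interpolate endpoints linearly; if unreached, use highest concentration. GI50: concentration for 50% inhibition of growth. TGI: total growth inhibition.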

Legend:
Experiment in all cases: NCI-60 cell line screen, 48 h
CAKI-1 renal = tested on: CAKI-1 renal
SNB-19 CNS = tested on: SNB-19 CNS
786-0 renal = tested on: 786-0 renal
SK-OV-3 ovarian = tested on: SK-OV-3 ovarian
RXF 393 renal = tested on: RXF 393 renal
HT29 colon = tested on: HT29 colon
PC-3 prostate = tested on: PC-3 prostate
U251 CNS = tested on: U251 CNS
OVCAR-3 ovarian = tested on: OVCAR-3 ovarian
SR leukemia = tested on: SR leukemia
SF-268 CNS = tested on: SF-268 CNS
IGROV1 ovarian = tested on: IGROV1 ovarian
TK-10 renal = tested on: TK-10 renal
COLO 205 colon = tested on: COLO 205 colon
OVCAR-5 ovarian = tested on: OVCAR-5 ovarian
DU-145 prostate = tested on: DU-145 prostate
A549 NSCLC = tested on: A549 NSCLC
MCF7 breast = tested on: MCF7 breast
MOLT-4 leukemia = tested on: MOLT-4 leukemia
UACC-62 melanoma = tested on: UACC-62 melanoma
SF-295 CNS = tested on: SF-295 CNS
HS 578T breast = tested on: HS 578T breast
HOP-62 NSCLC = tested on: HOP-62 NSCLC
SN12C renal = tested on: SN12C renal
M14 melanoma = tested on: M14 melanoma
NCI-H23 lung = tested on: NCI-H23 lung
SW-620 colon = tested on: SW-620 colon
NCI-H226 lung = tested on: NCI-H226 lung
SK-MEL-5 melanoma = tested on: SK-MEL-5 melanoma
HCT-116 colon = tested on: HCT-116 colon
MDA-MB-435 = tested on: MDA-MB-435
SF-539 CNS = tested on: SF-539 CNS
UO-31 renal = tested on: UO-31 renal
K-562 leukemia = tested on: K-562 leukemia
HL-60(TB) leukemia = tested on: HL-60(TB) leukemia
EKVX NSCLC = tested on: EKVX NSCLC
T-47D breast = tested on: T-47D breast
LOX IMVI melanoma = tested on: LOX IMVI melanoma
HOP-92 NSCLC = tested on: HOP-92 NSCLC
RPMI-8226 leukemia = tested on: RPMI-8226 leukemia
ACHN renal = tested on: ACHN renal
OVCAR-4 ovarian = tested on: OVCAR-4 ovarian
SK-MEL-2 melanoma = tested on: SK-MEL-2 melanoma
NCI-H522 lung = tested on: NCI-H522 lung
NCI-H460 lung = tested on: NCI-H460 lung
KM12 colon = tested on: KM12 colon
SK-MEL-28 melanoma = tested on: SK-MEL-28 melanoma
BT-549 breast = tested on: BT-549 breast
NCI/ADR-RES ovarian = tested on: NCI/ADR-RES ovarian
SNB-75 CNS = tested on: SNB-75 CNS
HCT-15 colon = tested on: HCT-15 colon
OVCAR-8 ovarian = tested on: OVCAR-8 ovarian
UACC-257 melanoma = tested on: UACC-257 melanoma

## CCOC(=O)[C@H]1O[C@@H]1C(=O)N[C@@H](CC(C)C)C(=O)NCCc1ccc(O)cc1
CAKI-1 renal
  GI50: > 100 µM
  TGI: > 100 µM
SNB-19 CNS
  GI50: > 100 µM
  TGI: > 100 µM
786-0 renal
  GI50: > 100 µM
  TGI: > 100 µM
SK-OV-3 ovarian
  GI50: > 100 µM
  TGI: > 100 µM
RXF 393 renal
  GI50: > 100 µM
  TGI: > 100 µM
HT29 colon
  GI50: > 100 µM
  TGI: > 100 µM
PC-3 prostate
  GI50: > 100 µM
  TGI: > 100 µM
U251 CNS
  GI50: > 100 µM
  TGI: > 100 µM
OVCAR-3 ovarian
  GI50: > 100 µM
  TGI: > 100 µM
SR leukemia
  GI50: 41 µM
  TGI: > 100 µM
SF-268 CNS
  GI50: > 100 µM
  TGI: > 100 µM
IGROV1 ovarian
  GI50: > 100 µM
  TGI: > 100 µM
TK-10 renal
  GI50: > 100 µM
  TGI: > 100 µM
COLO 205 colon
  GI50: > 100 µM
  TGI: > 100 µM
OVCAR-5 ovarian
  GI50: > 100 µM
  TGI: > 100 µM
DU-145 prostate
  GI50: > 100 µM
  TGI: > 100 µM
A549 NSCLC
  GI50: > 100 µM
  TGI: > 100 µM
MCF7 breast
  GI50: > 100 µM
  TGI: > 100 µM
MOLT-4 leukemia
  GI50: > 100 µM
  TGI: > 100 µM
UACC-62 melanoma
  GI50: > 100 µM
  TGI: > 100 µM
SF-295 CNS
  GI50: > 100 µM
  TGI: > 100 µM
HS 578T breast
  GI50: > 100 µM
  TGI: > 100 µM
HOP-62 NSCLC
  GI50: > 100 µM
  TGI: > 100 µM
SN12C renal
  GI50: > 100 µM
  TGI: > 100 µM
M14 melanoma
  GI50: > 100 µM
  TGI: > 100 µM
NCI-H23 lung
  GI50: > 100 µM
  TGI: > 100 µM
SW-620 colon
  GI50: > 100 µM
  TGI: > 100 µM
NCI-H226 lung
  GI50: > 100 µM
  TGI: > 100 µM
SK-MEL-5 melanoma
  GI50: > 100 µM
  TGI: > 100 µM
HCT-116 colon
  GI50: > 100 µM
  TGI: > 100 µM
MDA-MB-435
  GI50: > 100 µM
  TGI: > 100 µM
SF-539 CNS
  GI50: > 100 µM
  TGI: > 100 µM
UO-31 renal
  GI50: > 100 µM
  TGI: > 100 µM
K-562 leukemia
  GI50: 48.4 µM
  TGI: > 100 µM
HL-60(TB) leukemia
  GI50: > 100 µM
  TGI: > 100 µM
EKVX NSCLC
  GI50: > 100 µM
  TGI: > 100 µM
T-47D breast
  GI50: > 100 µM
  TGI: > 100 µM
LOX IMVI melanoma
  GI50: > 100 µM
  TGI: > 100 µM
HOP-92 NSCLC
  GI50: > 100 µM
  TGI: > 100 µM
RPMI-8226 leukemia
  GI50: > 100 µM
  TGI: > 100 µM
ACHN renal
  GI50: > 100 µM
  TGI: > 100 µM
OVCAR-4 ovarian
  GI50: > 100 µM
  TGI: > 100 µM
SK-MEL-2 melanoma
  GI50: > 100 µM
  TGI: > 100 µM
NCI-H522 lung
  GI50: > 100 µM
  TGI: > 100 µM
NCI-H460 lung
  GI50: > 100 µM
  TGI: > 100 µM
KM12 colon
  GI50: > 100 µM
  TGI: > 100 µM
SK-MEL-28 melanoma
  GI50: > 100 µM
  TGI: > 100 µM
BT-549 breast
  GI50: > 100 µM
  TGI: > 100 µM
NCI/ADR-RES ovarian
  GI50: > 100 µM
  TGI: > 100 µM
SNB-75 CNS
  GI50: > 100 µM
  TGI: > 100 µM
HCT-15 colon
  GI50: > 100 µM
  TGI: > 100 µM
OVCAR-8 ovarian
  GI50: > 100 µM
  TGI: > 100 µM
UACC-257 melanoma
  GI50: > 100 µM
  TGI: > 100 µM
